Experimental findings from patent US11337984B2, “Methods for treating, diagnosing and prognosing a haematological malignancy” (Institut de Recerca Contra La Leucèmia Josep Carreras, priority 2014, dated 2022) are described below.

This test has as its system HL-60, KG-1, MonoMac-1 and Kasumi-1 AML cell lines. Nature of the test: Cell viability of AML cell lines by flow cytometry (7-AAD/Hoechst, volumetric count). The class given is cell-based, human. Conditions: subtype-specific 5HTR antagonists, 0.1, 1 and 10 μM, 72 h. On the procedure: FIG. 1. […] 10^6 HL-60, KG-1, MonoMac-1 and Kasumi-1 cells per mL in complete RPMI media were treated with 0.1, 1 and 10 μM Apomorphine for 72 h. […] Cells were stained with 7-aminoactinomycin D (7-AAD, CAS no. 7240-37-1) and Hoechst 33342 (CAS no. 23491-52-3) and analyzed by flow cytometry. […] Cell number was calculated by volumetric count. A. The mean (symbol) for each AML cell line and standard deviation (error bars) from 6 different biological replicates are represented. B. The average corresponding to the four different AML cell lines is represented. *p<0.05.
FIG. 2. […] Cell number was calculated by volumetric count. A. The mean (symbol) for each AML cell line and standard deviation (error bars) from 6 different biological replicates are represented. B. AML cell lines were treated with 10 μM Apomorphine or Methiothepin in the presence or absence of 5-CT or 5-HT. *p<0.05. Apo: apomorphine; Methio: methiothepine.
In order to test the anti-leukaemic effect of 5HTR antagonists, HL-60 (Collins, Gallo et al. Nature. 1977; 270(5635):347-9), MonoMac-1 (Steube, Teepe et al. Leuk Res. 1997; 21(4):327-35), KG-1 (Koeffler and Golde. Science. 1978; 200(4346):1153-4) and Kasumi-1 (Asou, Tashiro et al. Blood. 1991; 77(9):2031-6) AML (Acute Myeloid Leukaemia) cell lines were treated with the broad 5HTR antagonist Apomorphine (CAS no. 314-19-2) at different doses for 72 h. One million cells per mL were seeded in complete RPMI media supplemented with 10% fetal bovine serum in a 96-well plate. The concentration used for the Apomorphine treatment was 0.1, 1 and 10 μM.
The human 5HTR family is composed by 7 subtypes (from 1 to 7) of receptors […]. HL-60, KG-1, MonoMac-1 and Kasumi-1 AML cell lines were incubated with subtype-specific 5HTR antagonists: Apomorphine (type 1, 2 and 5), Methiothepin (type 1 and 2) (CAS no. 74611-28-2), Amperozide (type 2) (CAS no. 75558-90-6), GR113808 (type 4) (CAS no. 144625-51-4). 72 h after treatment, cell viability was determined by flow cytometry. Cells were stained with 7-AAD (CAS no. 7240-37-1) and Hoechst 33342 (CAS no. 23491-52-3). Viability cells were identified by 7-AAD staining exclusion and the presence of Hoechst positive stain. Cell counts were measured by volume. […] In fact, the anti-leukaemic effect was reversed in the presence of a competitive agonist such as the natural ligand 5-HT (CAS no. 153-98-0) or 5-CT (CAS no. 74885-72-6).

With `CCNC(=O)N1CCN(CCCC(c2ccc(F)cc2)c2ccc(F)cc2)CC1` [Amperozide, 4-[4,4-bis(4-fluorophenyl)butyl]-N-ethylpiperazine-1-carboxamide], the “cell death on AML cell lines” value is listed as “induced cell death”. As for `Cn1cc(C(=O)OCC2CCN(CCNS(C)(=O)=O)CC2)c2ccccc21` [GR113808], the “cell death on AML cell lines” value is “Only Apomorphine, Methiothepin and Amperozide induced cell death”.
